Reference: article PMC8997995, “Amphiphilic Cell-Penetrating Peptides Containing Natural and Unnatural Amino Acids as Drug Delivery Agents” (Cells, 2022)
Where two headings read alike, the source gives them in different places. Non-standard residues stand in square brackets, D forms with d. Residues, ends and D or L forms follow the SMILES beside them. *: point of attachment. 5FAM = O=C1OC2(c3ccc(O)cc3Oc3cc(O)ccc32)c2ccc(C(=O)*)cc21; Dip = N[C@H](C(=O)O)C(c1ccccc1)c1ccccc1

Experiments:
[1] = parameters: method as in earlier work; conditions: cited from earlier work
Source text: In continuation of our efforts to design cyclic CPPs with improved molecular transporter properties, we report here the design and synthesis of a new class of CPPs, containing R, diphenylalanine (Dip), and W residues (Figure 1), the evaluation of their cytotoxicity, cellular uptake, nanostructure formation, and mechanism of actions.

[2] = system: CCRF-CEM cells; assay: In vitro cytotoxicity (MTS) in CCRF-CEM cells; type: cell-based, human; conditions: for reduction of cell proliferation: 25 µM, MTS, n = 3
Method: (§1) SK-OV-3, CCRF-CEM, HEK-293, MDA-MB-468, LLC-PK1, and MES-SA were used to determine the cytotoxicity of the synthesized linear and cyclic peptides. About 5000, 10,000, and 50,000 cells were seeded for SK-OV-3, HEK-293, and CCRF-CEM cells, respectively, in 0.1 mL of medium per well of 96-well plates. An appropriate medium was used for each cell line (SK-OV-3: McCoy’s 5A with L-glutamine containing fetal bovine serum (FBS) (10%) and penicillin or streptomycin (1%); CCRF-CEM: RPMI-1640 medium with L-glutamine and sodium bicarbonate containing FBS (10%) and penicillin or streptomycin (1%); MDA-MB-468 cells: DMEM/F12 (1:1) (1×) with L-glutamine and 15 mM HEPES containing FBS (10%) and penicillin or streptomycin (1%); LLC-PK1 cells: Dulbecco’s Modified Eagle’s Medium with 4500 mg/L glucose, L-glutamine and sodium bicarbonate, without sodium pyruvate liquid containing FBS (10%) and penicillin or streptomycin (1%); MES-SA cells: consisting of half SK-OV-3 and half CCRF-CEM media; and HEK-293 cells: Minimum Essential Medium Eagle with Earle’s salts and sodium bicarbonate, without L-glutamine containing FBS (10%) and penicillin or streptomycin (1%)). Then, 20 µL of peptides containing 5% DMSO in water were added to each well.
(§2) Adhesive cells were detached with 0.05% trypsin/EDTA after 15 min. The suspended cells were seeded in the medium 24 h prior to the experiment according to the previously reported procedure. The medium was changed before adding the peptides for adherent cells. Each concentration 5, 10, 25, 50, and 166 µM (containing 0.8% DMSO) had triplicate wells to minimize possible errors. […] The cell viability was measured by utilizing Multi-Mode Microplate Reader (SpectraMax M5 model, Molecular Devices, San Jose, CA, USA) after adding 20 µL of the MTS reagent to each well and incubating for 3 additional hours. […] The protocol manager was selected “endpoint” on the spectrophotometer’s software (SoftMax Pro 7). The 96-well plates were inserted inside spectrophotometer, and the data were acquired. The percentage of cell viability was calculated using the following equation:(1) =(Average OD values of samples treated with the compound /Average OD values of no treatment samples )∗100

[3] = Transmission electron microscopy, self-assembly; type: physicochemical; conditions: TEM, 30 μM, dried on grid overnight, not stained
Method: Transmission electron microscopy (TEM) was done on a LVEM 5D Microscope model (Delong instruments, Brno, Czech Republic) samples were prepared on an Ultrathin Carbon Film on Lacey Carbon Support Film with 400 mesh copper from Ted Pella. Dilute solutions of 30 μM concentration were used for the TEM analysis. Samples were dropped on grids, evaporated overnight, and not stained. They were incubated for approximately 2 h after thawing from a freezer (0 to −18 °C). Samples were air-dried, and images were obtained with a LVEM5 (Delong Instruments, US) 5 keV field emission gun. The camera was Zyla 5.5 Scientific CMOS with specifications of exposure 50–200 [ms], pixel readout 200 MHz—lowest noise, dynamic range 12-bit (low noise), and summing 1.

[4] = system: CCRF-CEM cells; assay: Cellular uptake by flow cytometry in CCRF-CEM cells; type: cell-based, human; conditions: peptide 10 µM, 3 h, no FBS, flow cytometry FITC, n = 3
Method: CCRF-CEM and SK-OV-3 cells were used to measure the cellular uptake of a fluorescent-labeled phosphopeptide (F’-GpYEEI) (2 µM), stavudine (F’-d4T) (2 µM) lamivudine (F’-3TC) (1–2 µM), emtricitabine (F’-FTC) (2 µM), and siRNA (F’-siRNA) (36 nM) with the least toxic concentration for each linear and the cyclic peptide (10 µM). The uptake was measured in the presence and absence of the peptides. The SK-OV-3 (0.5 million) and CCRF-CEM (a million) cells were incubated in each well of 6-well plates with the synthesized peptide and the fluorescent-labeled compound in one well. Another well contained the fluorescent-labeled compound alone for 3 h in an incubator (37 °C in a humidified atmosphere of 5% CO2). […] For more details, please refer back to the cytotoxicity method described above.
The cells were transferred to FACS analysis tubes after being washed with phosphate-buffered saline (PBS). The cells were centrifuged 2500 RPM for 5 min with Fisher Scientific accuSpin Micro 17 to precipitate the cells and to allow replacing the supernatant. The cells were then vortexed with Nerl Blood Bank Saline pH 7–7.2 (flow cytometry buffer) and transferred to the tube through a sterile cell strainer 40 µm Nylon Mesh. Finally, the cells were resuspended in flow cytometry buffer and analyzed by flow cytometry (FACSVerse model, Becton Dickinson, San Jose, CA, USA) using the FITC channel and the BD FACSuite software. The device was washed before each experiment, and the flow rate was set at medium. Finally, the cells were analyzed by using FITC channel […] argon laser for the excitation and the emitted 519 nm fluorescence for detection. The data presented was based on the FITC-A mean intensity signal for 10,000 cells collected. All assays were performed in triplicates. Results were evaluated to determine whether the peptides are facilitating the fluorescence compound to cross the membrane.
To determine the mechanism of the cellular uptake, F’-[K(DipR)5] or the physical mixture of the F’-GpYEEI and [DipR]5 were used to measure the fluorescence in the treated CCRF-CEM cells. F’-[K(DipR)5] (5 or 10 µM) or the physical mixture of the F’-GpYEEI (2 µM) and [DipR]5 (5 or 10 µM) were incubated with CCRF-CEM cells over 3 h. After each incubation, the medium containing the peptide and cells was removed. The same protocol as the cellular uptake study was used to prepare the cells as described above. Finally, the cells were resuspended in the buffer and analyzed by flow cytometry using the FITC channel and the BD FACSuite software. The data presented was based on the percentage of FITC-A mean intensity signal for 10,000 cells collected. All assays were performed in triplicates.

[5] = Circular dichroism, estimate of secondary structure; type: physicochemical; conditions: CD, 100 µM peptide in water, principal component regression analysis
Method: Samples were prepared in 100 µM concentration dissolved in water only. The cuvette with the 1 mm path length was used for all the measurements. The circular dichroism analysis was performed with a J-1500 Jasco spectrophotometer using nitrogen gas and PM-539 detector. Parameters were selected as follows: data interval 0.1 nm, data points 701, data pitch 0.1 nm, CD scale 200 mdeg/0.1 dOD, FL scale 200 mdeg/0.1 dOD, D.I.T 2 s, bandwidth 1 nm, cell length 1 mm, start mode immediately, scanning mode continuous, scanning speed 50 nm/min, shutter control auto, and N2 flowmeter manual. An average of three readings between 190 and 260 nm were collected for each sample. The analysis was carried out using one of Multivariate Regression Analyses, which is Principal Component Regression (PCR) with a basis set containing 26 proteins reference under the following conditions: standardization of result 100, replaced negative value to zero, and rejection percentage of 1%.

[6] = system: SK-OV-3 cells; type: cell-based, human; conditions: MTS, n = 3
Method: as §1, §2

[7] = system: HEK-293 cells; type: cell-based, human; conditions: HEK-293, 25 µM, 24 h incubation, MTS
Method: SK-OV-3, CCRF-CEM, HEK-293, MDA-MB-468, LLC-PK1, and MES-SA were used to determine the cytotoxicity of the synthesized linear and cyclic peptides. About 5000, 10,000, and 50,000 cells were seeded for SK-OV-3, HEK-293, and CCRF-CEM cells, respectively, in 0.1 mL of medium per well of 96-well plates. […]
Adhesive cells were detached with 0.05% trypsin/EDTA after 15 min. […] The cell viability was measured by utilizing Multi-Mode Microplate Reader (SpectraMax M5 model, Molecular Devices, San Jose, CA, USA) after adding 20 µL of the MTS reagent to each well and incubating for 3 additional hours. […] The percentage of cell viability was calculated using the following equation:(1) =(Average OD values of samples treated with the compound /Average OD values of no treatment samples )∗100

SMILES | Other (random coil) [5] | Turn [5] | α-helix [5] | β-sheet [5] | also measured
N[C@H](C(=O)O)C(c1ccccc1)c1ccccc1 [Dip, 3,3-diphenyl-L-alanine] |  |  |  |  | Log P (partition coefficient) [1]: 2.93
N=C(N)NCCC[C@@H]1NC(=O)[C@H](C(c2ccccc2)c2ccccc2)NC(=O)[C@H](CCCNC(=N)N)NC(=O)[C@H](C(c2ccccc2)c2ccccc2)NC(=O)[C@H](CCCNC(=N)N)NC(=O)[C@H](C(c2ccccc2)c2ccccc2)NC(=O)[C@H](CCCNC(=N)N)NC(=O)[C@H](C(c2ccccc2)c2ccccc2)NC(=O)[C@H](CCCNC(=N)N)NC(=O)[C@H](C(c2ccccc2)c2ccccc2)NC(=O)[C@H](CCCCNC(=O)c2ccc3c(c2)C(=O)OC32c3ccc(O)cc3Oc3cc(O)ccc32)NC1=O [F’-[K(DipR)5]] (cyclo([Dip]R[Dip]R[Dip]R[Dip]R[Dip]RK(5FAM))) |  |  |  |  | cytotoxicity ([2]; 10 µM, 3 h and 24 h incubations): minimal cytotoxicity; cytotoxicity ([2]; 166 µM, 3 h incubation): no cytotoxicity
N[C@@H](Cc1c[nH]c2ccccc12)C(=O)O [W, tryptophan] |  |  |  |  | Log P (partition coefficient) [1]: 1.82
N=C(N)NCCC[C@@H]1NC(=O)[C@H](Cc2c[nH]c3ccccc23)NC(=O)[C@H](CCCNC(=N)N)NC(=O)[C@H](Cc2c[nH]c3ccccc23)NC(=O)[C@H](CCCNC(=N)N)NC(=O)[C@H](C(c2ccccc2)c2ccccc2)NC(=O)[C@H](CCCNC(=N)N)NC(=O)[C@H](C(c2ccccc2)c2ccccc2)NC(=O)[C@H](CCCNC(=N)N)NC(=O)[C@H](Cc2c[nH]c3ccccc23)NC1=O [[(DipR)2(WR)3]] (cyclo([Dip]R[Dip]RWRWRWR)) | 47.8% | 12.8% | 20.8% | 18.6% | morphology of self-assembled structures [3]: star-shaped particles; size of self-assembled structures [3]: 1000–2000 nm; increase of cellular uptake of F’-GpYEEI vs cargo alone ([4]; F’-GpYEEI 2 µM): approximately 7 fold
N=C(N)NCCC[C@@H]1NC(=O)[C@H](Cc2c[nH]c3ccccc23)NC(=O)[C@H](CCCNC(=N)N)NC(=O)[C@H](C(c2ccccc2)c2ccccc2)NC(=O)[C@H](CCCNC(=N)N)NC(=O)[C@H](C(c2ccccc2)c2ccccc2)NC(=O)[C@H](CCCNC(=N)N)NC(=O)[C@H](C(c2ccccc2)c2ccccc2)NC(=O)[C@H](CCCNC(=N)N)NC(=O)[C@H](Cc2c[nH]c3ccccc23)NC1=O [[(DipR)3(WR)2]] (cyclo([Dip]R[Dip]R[Dip]RWRWR)) | 38.4% | 17.0% | 13.1% | 31.5% | 
N=C(N)NCCC[C@@H]1NC(=O)[C@H](Cc2c[nH]c3ccccc23)NC(=O)[C@H](CCCNC(=N)N)NC(=O)[C@H](C(c2ccccc2)c2ccccc2)NC(=O)[C@H](CCCNC(=N)N)NC(=O)[C@H](C(c2ccccc2)c2ccccc2)NC(=O)[C@H](CCCNC(=N)N)NC(=O)[C@H](C(c2ccccc2)c2ccccc2)NC(=O)[C@H](CCCNC(=N)N)NC(=O)[C@H](C(c2ccccc2)c2ccccc2)NC1=O [[(DipR)4(WR)]] (cyclo([Dip]R[Dip]R[Dip]R[Dip]RWR)) | 39.7% | 16.8% | 8.6% | 34.9% | 
N=C(N)NCCC[C@@H]1NC(=O)[C@H](Cc2c[nH]c3ccccc23)NC(=O)[C@H](CCCNC(=N)N)NC(=O)[C@H](Cc2c[nH]c3ccccc23)NC(=O)[C@H](CCCNC(=N)N)NC(=O)[C@H](C(c2ccccc2)c2ccccc2)NC(=O)[C@H](CCCNC(=N)N)NC(=O)[C@H](Cc2c[nH]c3ccccc23)NC(=O)[C@H](CCCNC(=N)N)NC(=O)[C@H](Cc2c[nH]c3ccccc23)NC1=O [[(DipR)(WR)4]] | 40.5% | 13.8% | 28.9% | 16.8% | morphology of self-assembled structures [3]: nanofiber structure; size of self-assembled structures [3]: ~50 nm; reduction of cell proliferation ([6]; SK-OV-3, 10 µM, 72 h incubation): 40%; reduction of cell proliferation ([6]; SK-OV-3, 25 µM, 24 h incubation): 76%; reduction of cell proliferation ([2]; 24 h incubation): 47%; reduction of cell proliferation ([2]; 72 h incubation): 32%; reduction of cell proliferation [7]: 8%; increase of cellular uptake of F’-d4T vs cargo alone ([4]; F’-d4T 2 µM): 12 fold
